How the values were obtained:
rice [1] = test: Test B pre-/postemergence herbicide test; type: in vivo, Oryza sativa; conditions: preemergence
Outline: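 Response was scored visually 13 to 15 days after treatment against untreated greenhouse controls, 0 meaning no effect and 100 complete control. Formulations (solvent mixture plus surfactant) went onto soil after planting, onto foliage of 1- to 4-leaf plants, and onto 2-leaf plants in a flooded paddy set including rice and barnyardgrass.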

large crabgrass = test: Test C pre-/postemergence herbicide test; type: in vivo, Digitaria sanguinalis; conditions: preemergence
Outline: (§1)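 Visual injury scores run from 0 (no effect) to 100 (complete control), assessed relative to untreated controls 12 to 14 days after treatment in the greenhouse. Chemicals were formulated in a non-phytotoxic solvent mixture with surfactant and applied to soil after planting or to emerged plants at the 1- to 4-leaf stage.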

woolly cupgrass = test: Test C pre-/postemergence herbicide test; type: in vivo, Eriochloa villosa; conditions: preemergence
Outline: as §1

giant foxtail = test: Test C pre-/postemergence herbicide test; type: in vivo, Setaria faberi; conditions: preemergence
Outline: as §1

lambsquarters = test: Test C pre-/postemergence herbicide test; type: in vivo, Chenopodium album; conditions: preemergence
Outline: as §1

pigweed = test: Test C pre-/postemergence herbicide test; type: in vivo, Amaranthus retroflexus; conditions: preemergence
Outline: as §1

[2] = tested on: common (oilseed) sunflower; test: Test C pre-/postemergence herbicide test; type: in vivo, Helianthus annuus; conditions: preemergence
Outline: as §1

rice [3] = test: Test C flooded paddy test; type: in vivo, Oryza sativa; conditions: for Plant response rating, Rice: 500 g ai/ha, visual rating after 12 to 14 days
Outline: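 Plants were grown to the 1- to 4-leaf stage (2–18 cm) and then treated postemergence, or grown to the 2-leaf stage for the flooded paddy test. They were held in a greenhouse for 12 to 14 days and then scored by eye against controls, where 0 is no effect and 100 is complete control.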

[4] = tested on: smallflower umbrella sedge; test: Test C flooded paddy test; type: in vivo, Cyperus difformis; conditions: for Plant response rating, Sedge, Umbrella: 500 g ai/ha, visual rating after 12 to 14 days
[5] = 125 g ai/ha, scale 0 (no effect) to 100 (complete control), visual, 12 to 14 days
[6] = 500 g ai/ha, scale 0 to 100 (0 no effect, 100 complete control), visual, 12 to 14 days
[7] = 125 g ai/ha, scale 0 to 100 (0 no effect, 100 complete control)
[8] = 250 g ai/ha, scale of 0 to 100, 0 is no effect, 100 is complete control
[9] = scale 0 to 100 (0 no effect, 100 complete control)
[10] = 62 g ai/ha, scale 0 to 100 (0 no effect, 100 complete control)
[11] = 125 g ai/ha, scale of 0 to 100, 0 is no effect, 100 is complete control

CCN1N=C(C(C)(C)C)CC1C(=O)Nc1cc(C(=O)N2CCCC2)ccc1F (racemic) [Compound 309]
Rice plant response rating (0 to 100 scale) (rice [1]; 125 g ai/ha, 0 = no effect, 100 = complete control): 70 | Plant response rating, Rice (rice [1]; 500 g ai/ha, visual rating, 0 = no effect, 100 = complete control): 90 | Plant response rating, Crabgrass, Large (large crabgrass; [5]): 80 | Plant response rating, Crabgrass, Large (large crabgrass; 250 g ai/ha, scale 0-100): 100 | Plant response rating, Crabgrass, Large (large crabgrass; [6]): 100 | Plant response rating, Cupgrass, Woolly (woolly cupgrass; 62 g ai/ha, scale 0 to 100): 40 | Plant response rating, Cupgrass, Woolly (woolly cupgrass; [5]): 70 | Plant response rating, Cupgrass, Woolly (woolly cupgrass; 250 g ai/ha, scale 0-100): 90 | Plant response rating, Cupgrass, Woolly (woolly cupgrass; [6]): 100 | Plant response rating, Foxtail, Giant (giant foxtail; 62 g ai/ha, scale 0 to 100): 70 | Plant response rating, Foxtail, Giant (giant foxtail; [5]): 80 | Plant response rating, Foxtail, Giant (giant foxtail; 250 g ai/ha, scale 0-100): 90 | Plant response rating, Foxtail, Giant (giant foxtail; [6]): 100 | Plant response rating, Lambsquarters (lambsquarters; 62 g ai/ha, scale 0 to 100): 100 | Plant response rating, Lambsquarters (lambsquarters; [5]): 100 | Plant response rating, Lambsquarters (lambsquarters; 250 g ai/ha, scale 0-100): 100 | Plant response rating, Lambsquarters (lambsquarters; [6]): 100 | Plant response rating, Pigweed (pigweed; 62 g ai/ha, scale 0 to 100): 80 | Plant response rating, Pigweed (pigweed; [5]): 100 | Plant response rating, Pigweed (pigweed; 250 g ai/ha, scale 0-100): 100 | Plant response rating, Pigweed (pigweed; [6]): 100 | Plant response rating, Sunflower ([2]; 62 g ai/ha, scale 0 to 100): 0 | Plant response rating, Sunflower ([2]; 250 g ai/ha, scale 0-100): 5 | Plant response rating, Sunflower [2, 6]: 60 | Rice plant response rating (rice [3]; 62 g ai/ha, scale 0 to 100): 60 | Rice plant response rating (rice [3]; [7]): 70 | Rice plant response rating (rice [3]; [8]): 75 | Plant response rating, Rice (rice [3]; [9]): 75 | Sedge, Umbrella plant response rating ([4]; 62 g ai/ha, scale 0 to 100): 80 | Sedge, Umbrella plant response rating [4, 7]: 80 | Sedge, Umbrella plant response rating [4, 8]: 80 | Plant response rating, Sedge, Umbrella [4, 9]: 80

CCC(=NO)c1cccc(NC(=O)c2cc(C(C)(C)C)nn2C)c1 [Compound 118]
Plant response rating, Rice (rice [1]; 125 g ai/ha, 0 to 100 scale, 0 is no effect, 100 is complete control): 0 | Plant response rating, Crabgrass, Large (large crabgrass; 31 g ai/ha, scale 0 to 100): 10 | Plant response rating (0 = no effect, 100 = complete control), Crabgrass, Large (large crabgrass; 62 g ai/ha): 70 | Plant response rating, Crabgrass, Large (large crabgrass; [5]): 100 | Plant response rating, Cupgrass, Woolly (woolly cupgrass; 31 g ai/ha, scale 0 to 100): 0 | Plant response rating (0 = no effect, 100 = complete control), Cupgrass, Woolly (woolly cupgrass; 62 g ai/ha): 0 | Plant response rating, Cupgrass, Woolly (woolly cupgrass; [5]): 0 | Plant response rating, Foxtail, Giant (giant foxtail; 31 g ai/ha, scale 0 to 100): 0 | Plant response rating (0 = no effect, 100 = complete control), Foxtail, Giant (giant foxtail; 62 g ai/ha): 0 | Plant response rating, Foxtail, Giant (giant foxtail; [5]): 10 | Plant response rating, Lambsquarters (lambsquarters; 31 g ai/ha, scale 0 to 100): 50 | Plant response rating (0 = no effect, 100 = complete control), Lambsquarters (lambsquarters; 62 g ai/ha): 50 | Plant response rating, Lambsquarters (lambsquarters; [5]): 60 | Plant response rating, Pigweed (pigweed; 31 g ai/ha, scale 0 to 100): 20 | Plant response rating (0 = no effect, 100 = complete control), Pigweed (pigweed; 62 g ai/ha): 70 | Plant response rating, Pigweed (pigweed; [5]): 90 | Plant response rating, Sunflower ([2]; 31 g ai/ha, scale 0 to 100): 0 | Plant response rating (0 = no effect, 100 = complete control), Sunflower ([2]; 62 g ai/ha): 0 | Plant response rating, Sunflower [2, 5]: 20 | Rice plant response rating (rice [3]; [10]): 20 | Rice plant response rating (rice [3]; [11]): 30 | Rice plant response rating (rice [3]; [8]): 40 | Plant response rating, Rice (rice [3]; [9]): 50 | Sedge, Umbrella plant response rating [4, 10]: 0 | Sedge, Umbrella plant response rating [4, 11]: 50 | Sedge, Umbrella plant response rating [4, 8]: 50 | Plant response rating, Sedge, Umbrella [4, 9]: 50
